Laboratory results from US10087148B2, “Quinazolines as biogenic amine transport modulators” (THE UNITED STATES OF AMERICA AS REPRESENTED BY THE …, priority 2014, dated 2018).
Where two headings read alike, the source gives them in different places.

Key:
[1] = biological target: T1, dopamine transporter (DAT) (Rattus norvegicus (Rat), UniProt P23977); assay: [3H]dopamine (DA) uptake inhibition in rat brain (caudate) synaptosomes; type: biochemical
[2] = biological target: serotonin transporter (SERT) (Rattus norvegicus (Rat), UniProt P31652); assay: [3H]serotonin (5-HT) uptake inhibition in rat brain synaptosomes; type: biochemical; conditions: for Emax: read-out: SERT Uptake Emax
serotonin transporter (SERT), sequence (P31652 whole entry): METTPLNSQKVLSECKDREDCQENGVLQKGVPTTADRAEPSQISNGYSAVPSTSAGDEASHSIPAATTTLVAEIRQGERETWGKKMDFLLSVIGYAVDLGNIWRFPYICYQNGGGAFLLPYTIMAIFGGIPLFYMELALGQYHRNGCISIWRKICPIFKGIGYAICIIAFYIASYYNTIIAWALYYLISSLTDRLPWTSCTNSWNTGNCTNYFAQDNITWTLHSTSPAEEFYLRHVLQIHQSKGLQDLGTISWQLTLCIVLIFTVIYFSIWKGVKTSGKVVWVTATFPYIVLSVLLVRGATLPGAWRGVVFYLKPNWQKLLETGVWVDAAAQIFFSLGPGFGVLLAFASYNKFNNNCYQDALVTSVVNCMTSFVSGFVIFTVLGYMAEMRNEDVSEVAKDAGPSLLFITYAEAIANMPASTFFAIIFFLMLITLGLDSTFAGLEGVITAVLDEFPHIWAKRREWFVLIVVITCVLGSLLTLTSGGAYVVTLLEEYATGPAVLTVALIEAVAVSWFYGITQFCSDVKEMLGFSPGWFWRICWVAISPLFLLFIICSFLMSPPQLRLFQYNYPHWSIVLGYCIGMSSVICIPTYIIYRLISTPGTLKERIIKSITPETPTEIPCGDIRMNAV
Description: Uptake inhibition assay for the serotonin transporter was conducted in rat brain synaptosomes as described elsewhere with minor modifications (Rothman et al., Synapse 39, 32-41 (2001)). Freshly removed whole brain minus cerebellum and caudate was homogenized in 10% ice-cold sucrose with 12 strokes of a hand-held Potter-Elvehjem homogenizer followed by centrifugation at 1000×g for 10 min. The supernatants were saved on ice and used immediately. Transporter activity at SERT was assessed using 5 nM [^3H]serotonin. The assay buffer was Krebs-phosphate buffer containing 154.4 mM NaCl, 2.9 mM KCl, 1.1 mM CaCl2, 0.83 mM MgCl2, 5 mM glucose, 1 mg/mL ascorbic acid, and 50 μM pargyline. […] Uptake inhibition assays were conducted at 25° C. and were initiated by adding 100 μL of tissue to 900 μL assay buffer containing test drug and [^3H]serotonin. Test drugs were diluted in assay buffer containing 1 mg/mL bovine serum albumin. Nonspecific uptake was measured by incubating in the presence of 10 μM indatraline. The reactions were stopped after 30 min by rapid vacuum filtration with a cell harvester (BRANDEL) over GF/B filters (Whatman) presoaked in wash buffer maintained at 25° C. (10 mM Tris-HCl, pH 7.4/150 mM NaCl). Filters were rinsed with 6 mL wash buffer and retained tritium was quantified by a MicroBeta liquid scintillation counter (PerkinElmer) after overnight extraction in 0.6 mL of liquid scintillation cocktail (Cytoscint, ICN). The data from three experiments were pooled and fit to a dose-response curve equation (using Kaleidagraph), to yield an Emax and EC50 value.

[3] = biological target: norepinephrine transporter (NET) (Rattus norvegicus, UniProt Q63380); assay: [3H]norepinephrine (NE) uptake inhibition in rat brain synaptosomes; type: biochemical; conditions: for Emax: read-out: NET Uptake Emax; for IC50: read-out: NET Uptake IC50, mean ± S.D., n = 3
norepinephrine transporter (NET), sequence (Q63380 1-617): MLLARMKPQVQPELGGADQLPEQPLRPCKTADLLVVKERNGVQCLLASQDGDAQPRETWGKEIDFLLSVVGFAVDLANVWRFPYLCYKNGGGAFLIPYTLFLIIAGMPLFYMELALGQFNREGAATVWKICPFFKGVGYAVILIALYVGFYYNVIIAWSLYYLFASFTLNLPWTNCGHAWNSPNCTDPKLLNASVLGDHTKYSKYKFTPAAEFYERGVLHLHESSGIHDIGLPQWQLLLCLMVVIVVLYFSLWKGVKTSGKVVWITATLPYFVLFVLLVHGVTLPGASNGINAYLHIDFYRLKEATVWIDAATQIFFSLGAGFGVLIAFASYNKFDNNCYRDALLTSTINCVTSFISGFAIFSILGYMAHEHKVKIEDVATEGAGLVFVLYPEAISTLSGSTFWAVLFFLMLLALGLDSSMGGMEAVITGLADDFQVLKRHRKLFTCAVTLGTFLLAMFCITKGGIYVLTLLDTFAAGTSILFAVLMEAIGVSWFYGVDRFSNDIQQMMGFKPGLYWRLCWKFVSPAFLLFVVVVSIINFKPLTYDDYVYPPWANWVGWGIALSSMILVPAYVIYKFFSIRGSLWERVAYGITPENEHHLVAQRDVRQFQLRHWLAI
Description: Uptake inhibition assay for the norepinephrine transporter was conducted in rat brain synaptosomes as described elsewhere with minor modifications (Rothman et al., Synapse 39, 32-41 (2001)). Freshly removed whole brain minus cerebellum and caudate was homogenized in 10% ice-cold sucrose with 12 strokes of a hand-held Potter-Elvehjem homogenizer followed by centrifugation at 1000×g for 10 minutes. The supernatants were saved on ice and used immediately. Transporter activity at NET was assessed using 10 nM [^3H]norepinephrine. The assay buffer was Krebs-phosphate buffer containing 154.4 mM NaCl, 2.9 mM KCl, 1.1 mM CaCl2, 0.83 mM MgCl2, 5 mM glucose, 1 mg/mL ascorbic acid, and 50 μM pargyline. […] Uptake inhibition assays were conducted at 37° C. and were initiated by adding 100 μL of tissue to 900 μL assay buffer containing test drug and [^3H]norepinephrine. Test drugs were diluted in assay buffer containing 1 mg/mL bovine serum albumin. Nonspecific uptake was measured by incubating in the presence of 10 μM indatraline. The reactions were stopped after 10 minutes by rapid vacuum filtration with a cell harvester (BRANDEL) over GF/B filters (Whatman) presoaked in wash buffer maintained at 25° C. (10 mM Tris-HCl, pH 7.4/150 mM NaCl). Filters were rinsed with 6 mL wash buffer and retained tritium was quantified by a MicroBeta liquid scintillation counter (PerkinElmer) after overnight extraction in 0.6 mL of liquid scintillation cocktail (Cytoscint, ICN). The data from three experiments were pooled and fit to a dose-response curve equation (using Kaleidagraph), to yield an Emax and EC50 value.

[4] = biological target: T1, dopamine transporter (DAT); assay: Dopamine transporter-mediated [3H]MPP+ release (d-amphetamine-induced, shift experiments) in rat caudate synaptosomes; type: biochemical; conditions: for Emax: read-out: d-Amphetamine Emax in presence of blocker; for Apparent Kc: [Blocker]/((EC50-2/EC50-1) − 1)
DAT = DAT (Rattus norvegicus (Rat), UniProt P23977); assay: Inhibition of [3H]WIN35428 binding to rat caudate DAT; conditions: for Emax / DAT Binding Emax / DAT Binding IC50 / IC50: [3H]WIN35428, mean ± S.D., n = 3; for DAT Binding IC50 / IC50: unit as printed in head (text gives 1100 nM where table prints 1.1)
DAT, sequence (P23977 whole entry): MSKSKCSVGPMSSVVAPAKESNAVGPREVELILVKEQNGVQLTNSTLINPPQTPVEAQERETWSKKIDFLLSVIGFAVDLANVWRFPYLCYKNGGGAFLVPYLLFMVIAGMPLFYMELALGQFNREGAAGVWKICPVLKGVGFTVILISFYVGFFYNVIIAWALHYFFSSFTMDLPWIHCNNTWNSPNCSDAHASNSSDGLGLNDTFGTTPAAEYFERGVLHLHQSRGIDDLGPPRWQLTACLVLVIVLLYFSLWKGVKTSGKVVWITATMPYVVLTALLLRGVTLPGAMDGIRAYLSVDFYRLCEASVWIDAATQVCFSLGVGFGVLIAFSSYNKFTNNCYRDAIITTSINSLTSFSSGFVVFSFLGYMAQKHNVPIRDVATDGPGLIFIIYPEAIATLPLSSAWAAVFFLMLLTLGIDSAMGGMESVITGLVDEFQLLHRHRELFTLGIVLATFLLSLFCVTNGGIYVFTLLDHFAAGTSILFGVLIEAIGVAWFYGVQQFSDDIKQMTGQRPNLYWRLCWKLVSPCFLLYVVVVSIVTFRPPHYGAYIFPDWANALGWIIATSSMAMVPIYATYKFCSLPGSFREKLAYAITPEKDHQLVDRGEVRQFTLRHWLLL
Description: All of the test compounds were synthesized as described herein. […] The data from three experiments were pooled and fit to a dose-response curve equation (using KaleidaGraph; Synergy Software, Reading, Pa.) to yield an Emax and IC50 value. […] Selected compounds were also tested for their ability to inhibit [^3H]WIN35428 binding to rat caudate DAT.

[5] = mean ± S.D., n = 3, read-out: DAT Uptake Emax
[6] = values in Table 9, read-out: Emax for DAT Uptake Inhibition
[7] = [3H]MPP+ release, blocker concentration per row, mean ± S.D., n = 3

T1 sequence (P23977 whole entry): as above

| SMILES | Emax [1, 5] | Emax [1, 6] | Emax ([2]; mean ± S.D., n = 3) | Emax [3] | IC50 [3] | Emax [4, 7] | Emax (DAT) | DAT Binding Emax (DAT) | DAT Binding IC50 (DAT) | IC50 ([1]; mean ± S.D., n = 3) | IC50 ([2]; mean ± S.D., n = 3) | Apparent Kc ([4]; [3H]MPP+ release) | IC50 (DAT) | Emax ([1]; read-out: DAT Uptake Emax) | Emax ([1]; read-out: Emax for DAT Uptake Inhibition) | Emax [2] | Emax [4] | DAT binding IC50 weaker than IC50 for inhibition of DAT uptake (DAT; binding IC50 / uptake IC50) |
| --- | --- | --- | --- | --- | --- | --- | --- | --- | --- | --- | --- | --- | --- | --- | --- | --- | --- | --- |
| CS(=O)(=O)Nc1ccc(-c2nc(NCC(c3ccccc3)c3ccccc3)c3ccccc3n2)cc1 [Compound 50, N-(4-(4-((2,2-diphenylethyl)amino)quinazolin-2-yl)phenyl)methanesulfonamide] | 70 ± 2% | 70% | 56 ± 2% | 71 ± 2% | 90 ± 15 nM | 102 ± 2% | 65 ± 6% | – | – | – | – | – | – | – | – | – | – | – |
| c1ccc(C(CNc2nc(-c3ccc4ncnn4c3)nc3ccccc23)c2ccccc2)cc1 [SRI-30522] | 63 ± 1% | 63% | 35 ± 3% | 40 ± 5% | 86 ± 55 nM | 105 ± 4% | – | Inactive | Inactive | – | – | – | – | – | – | – | – | – |
| c1ccc(C(CNc2nc(-c3cccnc3)nc3ccccc23)c2ccccc2)cc1 [SRI-29072] | 71 ± 3% | 71% | 56 ± 9% | 62 ± 5% | 5850 ± 1750 nM | 96 ± 3% | 77 ± 2% | – | – | 212 ± 49 nM | 6380 ± 2640 nM | 25830 nM | 2700 ± 300 nM | – | – | – | – | – |
| Cl.Fc1ccc2c(NCC(c3ccccc3)c3ccccc3)nc(-c3ccc4nccn4c3)nc2c1 [SRI-31034] | – | – | – | 63 ± 3% | 94 ± 22 nM | – | – | Inactive | Inactive | – | – | 3200 nM | – | 69 ± 1% | 69% | 49 ± 2% | 104 ± 5% | – |
| c1ccc(C(CNc2nc(-c3ccc4nccn4c3)nc3ccccc23)c2ccc[nH]2)cc1 (centres unmarked) [SRI-30826] | 64 ± 2% | 64% | 56 ± 2% | 81 ± 2% | 88 ± 15 nM | 105 ± 4% | 42 ± 3% | – | – | – | – | 1600 nM | 1280 ± 400 nM | – | – | – | – | – |
| CN(C)c1ncc(-c2nc(NCC(c3ccccc3)c3ccccc3)c3ccccc3n2)cn1 [SRI-29153] | 73 ± 1% | 73% | 55 ± 5% | 73 ± 4% | 181 ± 46 nM | 101 ± 3% | 76 ± 2% | – | – | – | – | 1820 nM | 1700 ± 200 nM | – | – | – | – | – |
| Cc1cc2nccn2cc1-c1nc(NCC(c2ccccc2)c2ccccc2)c2ccccc2n1 [SRI-30827] | 63 ± 2% | 63% | 58 ± 3% | 67 ± 3% | 21 ± 7 nM | 104 ± 3% | 79 ± 3% | – | – | – | – | 267 nM | 1990 ± 330 nM | – | – | – | – | – |
| c1ccc(C(CCNc2nc(-c3cccnc3)nc3ccccc23)c2ccccc2)cc1 [SRI-29070] | 66 ± 4% | 66% | 48 ± 3% | 64 ± 10% | 1740 ± 1150 nM | 98 ± 1% | 71 ± 4% | – | – | 174 ± 58 nM | 699 ± 164 nM | 7050 nM | 1800 ± 400 nM | – | – | – | – | – |
| Cc1cc2nccn2cc1-c1nc(NCC(O)(c2ccccc2)c2ccccc2)c2ccccc2n1 [SRI-31143] | 69 ± 1% | 67% | 51 ± 2% | 69 ± 4% | 16 ± 5 nM | 104 ± 4% | 52 ± 8% | – | – | – | – | 46 nM | 3390 ± 1990 nM | – | – | – | – | – |
| c1ccc(C(CNc2nc(-c3ccc4[nH]ccc4c3)nc3ccccc23)c2ccccc2)cc1 [SRI-29155] | 74 ± 1% | 74% | 54 ± 2% | 70 ± 3% | 290 ± 52 nM | 94 ± 2% | 87 ± 4% | – | – | – | – | 456 nM | 900 ± 200 nM | – | – | – | – | – |
| CN(C)c1ccc(-c2nc(NCC(c3ccccc3)c3ccccc3)c3ccccc3n2)cc1 [Compound 51, 2-(4-(dimethylamino)phenyl)-N-(2,2-diphenylethyl)quinazolin-4-amine] | 70 ± 3% | 70% | 44 ± 4% | 68 ± 7% | 143 ± 61 nM | 101 ± 2% | 100 ± 3% | – | – | – | – | – | – | – | – | – | – | 155 fold |
| CN(C)c1ncc(-c2nc(NCCC(c3ccccc3)c3ccccc3)c3ccccc3n2)cn1 [SRI-29212] | 67 ± 4% | 67% | 50 ± 7% | 64 ± 5% | 8130 ± 2270 nM | 103 ± 2% | 72 ± 4% | – | – | 672 ± 204 nM | 3800 ± 1640 nM | 64580 nM | 2200 ± 500 nM | – | – | – | – | – |
| Cc1cc2nccn2cc1-c1nc(NCC(c2ccccc2)c2ccncc2)c2ccccc2n1 (centres unmarked) [SRI-31142] | 72 ± 2% | 72% | 48 ± 1% | 61 ± 2% | 17 ± 4 nM | 103 ± 3% | 92 ± 4% | – | – | – | – | 400 nM | 2340 ± 450 nM | – | – | – | – | – |
| c1ccc(C(CNc2nc(-c3cnc4nccn4c3)nc3ccccc23)C2CCCCC2)cc1 (centres unmarked) [SRI-30517] | 70 ± 1% | 70% | 54 ± 1% | 70 ± 2% | 95 ± 12 nM | 104 ± 4% | 43 ± 4% | – | – | – | – | 1600 nM | 160 ± 80 nM | – | – | – | – | – |
